For one data set, the target named is T1, bovine Factor Xa (Bos taurus, UniProt P00743).
T1 construct: purchased Thermo Scientific 32521
Description: Factor Xa anticoagulant assay (antithrombin-III mediated inactivation of Factor Xa). It counts as biochemical. The conditions noted are these: dose range 0.004 to 50 μg/ml. As to the method: The plate is incubated for two minutes at 37° C. […] 19 μl of 2.5 mM chromogenic substrate (American Diagnostica Inc. Spectrozyme FXa Product No 222L) in assay buffer is added to each well and incubated for 2 hours at 37° C., followed by addition of 5 μl of 30% acetic acid to each well. Absorbance at 405 nm is read on a multiplate reader.

The target of the next data set is T2, recombinant human BACE-1 (Homo sapiens, UniProt P56817).
T2 construct: purchased R & D Systems 931-AS
Description: BACE-1 inhibition by in vitro FRET peptide cleavage assay. The conditions noted are these: pH 4.5, 1 h, 25° C. It is filed as biochemical. The protocol:
The ability of compounds of the invention to inhibit BACE-1 cleavage of APP is assessed using a fluorescent resonance energy transfer (FRET) peptide cleavage assay employing the FRET peptide HiLyte 488-Glu-Val-Asn-Leu-Asp-Ala-Glu-Phe-Lys(QXL520)-OH (Anaspec, Inc., CA, USA; Cat no. 60604-01). When intact, the amino terminal fluorophore is quenched, but upon enzymatic cleavage the fluorophore is released from quencher and fluoresces (520 nm). Assays are performed in triplicate in 96 well black plates (20 mM sodium acetate, 0.1% Triton-X-100, pH 4.5; 2.2 ng peptide per well and 25 ng/well of recombinant human BACE-1 (R & D Systems Cat no. 931-AS). The appropriate controls for enzyme activity (substrate plus enzyme, and substrate only) are employed and plates are incubated (1 h, 25° C., with activity stopped with 2.5 M sodium acetate). Compounds of the invention are added in the concentration range from 100-0.0001 μg/mL. Fluorescence 480ex/520em is measured on a Polarstar plate reader (BMG LabTechnologies, UK) and data are analysed by plotting log10 concentration of compound against percent inhibition and fitting a logistic dose response sigmoidal curve using OriginPro 8 (OriginLabs, Mass, USA).

A further data set relates to Aβ1-40. In words: Brain slice assay, soluble Aβ1-40 in medium by ELISA. It counts as cell-based, Transgenic TG2576 mice. The conditions noted are these: TG2576 mouse brain slices; 1, 10 and 100 μg/ml; 96 hours vs. 48 hours. The protocol: Transgenic TG2576 mice expressing the human SWE-mutated amyloid precursor protein are sacrificed by cervical dislocation at 8-10 months of age. The brain is removed and 400 μm coronal sections are obtained using a manual tissue chopper (Leica Microsystems). Slices are washed briefly in HBSS (Hank balanced salt solution, Life Technologies) supplemented with 4.5 mg/ml glucose (Sigma-Aldrich) and 3.75 μg/ml amphotericin B (Sigma-Aldrich) and transferred to a transwell plate (Costar 3396 HTS 24 well transwell plate with 0.4 μm polycarbonate membrane) in 1 ml of 50% MEM (minimal essential medium, Life Technologies) supplemented with 25% heat-inactivated horse serum (Life Technologies), 25% HBSS, 0.5 mM glutamine (Life Technologies), 4.5 mg/ml glucose and 3.75 μg/ml amphotericin B. Slices are incubated 48 hours at 37 C, 5% CO2. […] Soluble Aμ1-40 in the medium is quantified using a SensoLyte™ Anti-Human βeta-Amyloid (1-40) ELISA kit (Anaspec) in accordance with the manufacturer's instructions. […] The color reaction is stopped with 50 μl of Stop Solution and the plate is read at 450 nm using an absorbance plate reader (Thermo Multiskan EX). The amount of Aβ-40 is quantified by reference to a standard curve of Aβ1-40 (supplied in the SensoLyte™ kit). Data are expressed as a percentage of the Aβ1-40 present at 96 hours vs. 48 hours for each condition.
A general note: An ELISA detects its analyte on a solid surface through an enzyme-linked reagent.

The structures appear in SMILES notation.

Results on 9 compounds are retold here after patent publication US9879041B2, “Saccharide dendritic cluster compounds as inhibitors of BACE-1” (Victoria Link Limited, priority 2012, dated 2018).

T2 sequence (P56817 46-501): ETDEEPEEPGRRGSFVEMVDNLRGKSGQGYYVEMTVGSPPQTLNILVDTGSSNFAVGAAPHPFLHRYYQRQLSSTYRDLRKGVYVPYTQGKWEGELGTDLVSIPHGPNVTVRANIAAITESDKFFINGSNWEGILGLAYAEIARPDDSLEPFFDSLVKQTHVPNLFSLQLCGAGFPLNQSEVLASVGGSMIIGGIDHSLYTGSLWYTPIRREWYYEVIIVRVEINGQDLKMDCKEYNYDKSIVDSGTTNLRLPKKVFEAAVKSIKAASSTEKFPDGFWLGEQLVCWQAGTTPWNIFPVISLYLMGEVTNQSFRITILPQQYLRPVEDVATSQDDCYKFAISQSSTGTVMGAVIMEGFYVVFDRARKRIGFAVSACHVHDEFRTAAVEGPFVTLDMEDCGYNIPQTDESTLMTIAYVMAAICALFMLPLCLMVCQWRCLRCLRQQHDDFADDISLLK
T1 sequence (P01008 33-464 partner): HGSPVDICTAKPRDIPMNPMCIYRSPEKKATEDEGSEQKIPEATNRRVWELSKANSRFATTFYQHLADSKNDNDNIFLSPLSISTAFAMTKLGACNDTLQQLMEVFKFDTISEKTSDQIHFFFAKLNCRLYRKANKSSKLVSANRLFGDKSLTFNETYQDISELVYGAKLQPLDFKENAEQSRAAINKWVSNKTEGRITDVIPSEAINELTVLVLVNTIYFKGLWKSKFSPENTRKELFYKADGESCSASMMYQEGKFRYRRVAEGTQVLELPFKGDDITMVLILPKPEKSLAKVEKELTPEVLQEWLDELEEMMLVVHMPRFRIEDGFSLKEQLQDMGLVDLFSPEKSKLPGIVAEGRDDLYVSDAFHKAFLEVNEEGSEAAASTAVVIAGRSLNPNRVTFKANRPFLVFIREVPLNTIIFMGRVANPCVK
T1 sequence (P00743 234-492 limits assumed): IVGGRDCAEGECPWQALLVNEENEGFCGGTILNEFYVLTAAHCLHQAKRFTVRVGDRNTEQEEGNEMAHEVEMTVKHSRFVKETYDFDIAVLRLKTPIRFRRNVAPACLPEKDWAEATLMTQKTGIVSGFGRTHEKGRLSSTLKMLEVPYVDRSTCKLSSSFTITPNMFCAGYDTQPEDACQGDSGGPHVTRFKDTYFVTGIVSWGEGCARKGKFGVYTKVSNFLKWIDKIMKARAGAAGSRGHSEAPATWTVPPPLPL

`CC(=O)NC1C(OCCCCCCNC(=O)CCOCC(COCCC(=O)NCCCCCCOC2OC(COS(=O)(=O)O)C(O)C(O)C2NC(C)=O)(COCCC(=O)NCCCCCCOC2OC(COS(=O)(=O)O)C(O)C(O)C2NC(C)=O)COCCC(=O)NCCCCCCOC2OC(COS(=O)(=O)O)C(O)C(O)C2NC(C)=O)OC(COS(=O)(=O)O)C(O)C1O` (stereo not shown) [Compound 18e]: the “ability to accelerate antithrombin-III mediated inactivation of Factor Xa, as measured by cleavage of a peptide substrate” value (“ability … of a peptide substrate” below) at bovine Factor Xa is “do not display any measurable ability”. Besides, at recombinant human BACE-1, the IC50 was about 25600 nM. `CC(=O)NC1C(OC2C(C(=O)O)OC(OCCCCCCNC(=O)CCCCCCCNC(=O)CCOCC(COCCC(=O)NCCCCCCCC(=O)NCCCCCCOC3OC(C(=O)O)C(OC4OC(COS(=O)(=O)O)C(O)C(O)C4NC(C)=O)C(O)C3O)(COCCC(=O)NCCCCCCCC(=O)NCCCCCCOC3OC(C(=O)O)C(OC4OC(COS(=O)(=O)O)C(O)C(O)C4NC(C)=O)C(O)C3O)COCCC(=O)NCCCCCCCC(=O)NCCCCCCOC3OC(C(=O)O)C(OC4OC(COS(=O)(=O)O)C(O)C(O)C4NC(C)=O)C(O)C3O)C(O)C2O)OC(COS(=O)(=O)O)C(O)C1O` (stereo not shown) [Compound 18a]: the “ability to lower amounts of Aβ1-40 in brain slices” value in the data set with Aβ1-40 is on record as “demonstrate the ability to lower amounts of Aβ1-40”. With `CC(=O)NC1C(OC2C(C(=O)O)OC(OCCCCCCNC(=O)CCCCCCCNC(=O)CCOCC(COCCC(=O)NCCCCCCCC(=O)NCCCCCCOC3OC(C(=O)O)C(OC4OC(COS(=O)(=O)O)C(O)C(O)C4NC(C)=O)C(O)C3OS(=O)(=O)O)(COCCC(=O)NCCCCCCCC(=O)NCCCCCCOC3OC(C(=O)O)C(OC4OC(COS(=O)(=O)O)C(O)C(O)C4NC(C)=O)C(O)C3OS(=O)(=O)O)COCCC(=O)NCCCCCCCC(=O)NCCCCCCOC3OC(C(=O)O)C(OC4OC(COS(=O)(=O)O)C(O)C(O)C4NC(C)=O)C(O)C3OS(=O)(=O)O)C(OS(=O)(=O)O)C2O)OC(COS(=O)(=O)O)C(O)C1O` (stereo not shown) [Compound 20b], the “ability … of a peptide substrate” value on bovine Factor Xa is recorded as “do not display any measurable ability”. The IC50 at recombinant human BACE-1 was about 56.4 nM.

Turning to `CC(=O)NC1C(OC2C(C(=O)O)OC(OCCCCCCNC(=O)CCCCCCCNC(=O)CCOCC(COCCC(=O)NCCCCCCCC(=O)NCCCCCCOC3OC(C(=O)O)C(OC4OC(COS(=O)(=O)O)C(O)C(O)C4NC(C)=O)C(O)C3O)(COCCC(=O)NCCCCCCCC(=O)NCCCCCCOC3OC(C(=O)O)C(OC4OC(COS(=O)(=O)O)C(O)C(O)C4NC(C)=O)C(O)C3O)COCCC(=O)NCCCCCCCC(=O)NCCCCCCOC3OC(C(=O)O)C(OC4OC(COS(=O)(=O)O)C(O)C(O)C4NC(C)=O)C(O)C3O)C(O)C2O)OC(COS(=O)(=O)O)C(O)C1O` (stereo not shown) [Compound 18b], on bovine Factor Xa, the “ability … of a peptide substrate” value is recorded as “do not display any measurable ability”. For the same compound, at recombinant human BACE-1, the IC50 is about 3100 nM.

With `CC(=O)NC1C(OC2C(C(=O)O)OC(OC3C(COS(=O)(=O)O)OC(OC4C(C(=O)O)OC(OCCCCCCNC(=O)CCCCCCCNC(=O)CCOCC(COCCC(=O)NCCCCCCCC(=O)NCCCCCCOC5OC(C(=O)O)C(OC6OC(COS(=O)(=O)O)C(OC7OC(C(=O)O)C(OC8OC(COS(=O)(=O)O)C(O)C(O)C8NC(C)=O)C(O)C7O)C(O)C6NC(C)=O)C(O)C5O)(COCCC(=O)NCCCCCCCC(=O)NCCCCCCOC5OC(C(=O)O)C(OC6OC(COS(=O)(=O)O)C(OC7OC(C(=O)O)C(OC8OC(COS(=O)(=O)O)C(O)C(O)C8NC(C)=O)C(O)C7O)C(O)C6NC(C)=O)C(O)C5O)COCCC(=O)NCCCCCCCC(=O)NCCCCCCOC5OC(C(=O)O)C(OC6OC(COS(=O)(=O)O)C(OC7OC(C(=O)O)C(OC8OC(COS(=O)(=O)O)C(O)C(O)C8NC(C)=O)C(O)C7O)C(O)C6NC(C)=O)C(O)C5O)C(O)C4O)C(NC(C)=O)C3O)C(O)C2O)OC(COS(=O)(=O)O)C(O)C1O` (stereo not shown) [Compound 18c], the “ability … of a peptide substrate” value on bovine Factor Xa is listed as “do not display any measurable ability”. Further, on recombinant human BACE-1, the IC50 is about 39.5 nM. As to `O=C(CCCCCCCNC(=O)CCOCC(COCCC(=O)NCCCCCCCC(=O)NCCCCCCOC1OC(C(=O)O)C(OC2OC(COS(=O)(=O)O)C(OC3OC(C(=O)O)C(OC4OC(COS(=O)(=O)O)C(O)C(O)C4NS(=O)(=O)O)C(O)C3OS(=O)(=O)O)C(O)C2NS(=O)(=O)O)C(O)C1OS(=O)(=O)O)(COCCC(=O)NCCCCCCCC(=O)NCCCCCCOC1OC(C(=O)O)C(OC2OC(COS(=O)(=O)O)C(OC3OC(C(=O)O)C(OC4OC(COS(=O)(=O)O)C(O)C(O)C4NS(=O)(=O)O)C(O)C3OS(=O)(=O)O)C(O)C2NS(=O)(=O)O)C(O)C1OS(=O)(=O)O)COCCC(=O)NCCCCCCCC(=O)NCCCCCCOC1OC(C(=O)O)C(OC2OC(COS(=O)(=O)O)C(OC3OC(C(=O)O)C(OC4OC(COS(=O)(=O)O)C(O)C(O)C4NS(=O)(=O)O)C(O)C3OS(=O)(=O)O)C(O)C2NS(=O)(=O)O)C(O)C1OS(=O)(=O)O)NCCCCCCOC1OC(C(=O)O)C(OC2OC(COS(=O)(=O)O)C(OC3OC(C(=O)O)C(OC4OC(COS(=O)(=O)O)C(O)C(O)C4NS(=O)(=O)O)C(O)C3OS(=O)(=O)O)C(O)C2NS(=O)(=O)O)C(O)C1OS(=O)(=O)O` (stereo not shown) [Compound 22a], the “ability … of a peptide substrate” value on bovine Factor Xa was “do not display any measurable ability”. Further, the IC50 on recombinant human BACE-1 was about 1.67 nM. Taken in the same sequence, the figures for `CC(=O)NC1C(OC2C(C(=O)O)OC(OC3C(COS(=O)(=O)O)OC(OC4C(C(=O)O)OC(OCCCCCCNC(=O)CCCCCCCNC(=O)CCOCC(COCCC(=O)NCCCCCCCC(=O)NCCCCCCOC5OC(C(=O)O)C(OC6OC(COS(=O)(=O)O)C(OC7OC(C(=O)O)C(OC8OC(COS(=O)(=O)O)C(O)C(O)C8NC(C)=O)C(O)C7OS(=O)(=O)O)C(O)C6NC(C)=O)C(O)C5OS(=O)(=O)O)(COCCC(=O)NCCCCCCCC(=O)NCCCCCCOC5OC(C(=O)O)C(OC6OC(COS(=O)(=O)O)C(OC7OC(C(=O)O)C(OC8OC(COS(=O)(=O)O)C(O)C(O)C8NC(C)=O)C(O)C7OS(=O)(=O)O)C(O)C6NC(C)=O)C(O)C5OS(=O)(=O)O)COCCC(=O)NCCCCCCCC(=O)NCCCCCCOC5OC(C(=O)O)C(OC6OC(COS(=O)(=O)O)C(OC7OC(C(=O)O)C(OC8OC(COS(=O)(=O)O)C(O)C(O)C8NC(C)=O)C(O)C7OS(=O)(=O)O)C(O)C6NC(C)=O)C(O)C5OS(=O)(=O)O)C(OS(=O)(=O)O)C4O)C(NC(C)=O)C3O)C(OS(=O)(=O)O)C2O)OC(COS(=O)(=O)O)C(O)C1O` (stereo not shown) [Compound 20c] were “do not display any measurable ability” and about 1.75 nM. Consider `CC(=O)NC1C(OC2C(C(=O)O)OC(OCCCCCCNC(=O)CCCCCCCNC(=O)CCOCC(COCCC(=O)NCCCCCCCC(=O)NCCCCCCOC3OC(C(=O)O)C(OC4OC(COS(=O)(=O)O)C(O)C(O)C4NC(C)=O)C(O)C3OS(=O)(=O)O)(COCCC(=O)NCCCCCCCC(=O)NCCCCCCOC3OC(C(=O)O)C(OC4OC(COS(=O)(=O)O)C(O)C(O)C4NC(C)=O)C(O)C3OS(=O)(=O)O)COCCC(=O)NCCCCCCCC(=O)NCCCCCCOC3OC(C(=O)O)C(OC4OC(COS(=O)(=O)O)C(O)C(O)C4NC(C)=O)C(O)C3OS(=O)(=O)O)C(OS(=O)(=O)O)C2O)OC(COS(=O)(=O)O)C(O)C1O` (stereo not shown) [Compound 20a], for which, at recombinant human BACE-1, the IC50 was about 14.1 nM. For the compound `CC(=O)NC1C(OCCCCCCNC(=O)CCCCCCCNC(=O)CCOCC(COCCC(=O)NCCCCCCCC(=O)NCCCCCCOC2OC(COS(=O)(=O)O)C(O)C(O)C2NC(C)=O)(COCCC(=O)NCCCCCCCC(=O)NCCCCCCOC2OC(COS(=O)(=O)O)C(O)C(O)C2NC(C)=O)COCCC(=O)NCCCCCCCC(=O)NCCCCCCOC2OC(COS(=O)(=O)O)C(O)C(O)C2NC(C)=O)OC(COS(=O)(=O)O)C(O)C1O` (stereo not shown) [Compound 18h], the “ability … of a peptide substrate” value on bovine Factor Xa is “do not display any measurable ability”. Further, the IC50 on recombinant human BACE-1 was in the range of 794 to 1980 nM.

One may read the IC50 as the concentration at which inhibition is half-maximal.
